The text below walks through data of US10227324B2 (Shanghai Haiyan Pharmaceutical Technology Co., Ltd., priority 2014, dated 2019).

Data set [1] has as its target T1, PI3K-β kinase (p110β/p85α) (Homo sapiens, UniProt P42338).
T1 construct: purchased Millipore 14-603
Put plainly: Determination of PI3K kinase activity (ADP Transcreener, fluorescence polarization). The class given is biochemical. Conditions: Table 1; ATP 10 μM; read-out: PI3K-β/nM (IC50 of inhibitory activity against PI3K kinase). Background: In fluorescence polarisation assays a small probe gives low polarisation when free and higher when bound to something large.

The target in data set [2] is T2, PI3K-δ kinase (p110δ/p85α) (Homo sapiens, UniProt O00329).
T2 construct: purchased Millipore 14-604M
T2 sequence (O00329 whole entry): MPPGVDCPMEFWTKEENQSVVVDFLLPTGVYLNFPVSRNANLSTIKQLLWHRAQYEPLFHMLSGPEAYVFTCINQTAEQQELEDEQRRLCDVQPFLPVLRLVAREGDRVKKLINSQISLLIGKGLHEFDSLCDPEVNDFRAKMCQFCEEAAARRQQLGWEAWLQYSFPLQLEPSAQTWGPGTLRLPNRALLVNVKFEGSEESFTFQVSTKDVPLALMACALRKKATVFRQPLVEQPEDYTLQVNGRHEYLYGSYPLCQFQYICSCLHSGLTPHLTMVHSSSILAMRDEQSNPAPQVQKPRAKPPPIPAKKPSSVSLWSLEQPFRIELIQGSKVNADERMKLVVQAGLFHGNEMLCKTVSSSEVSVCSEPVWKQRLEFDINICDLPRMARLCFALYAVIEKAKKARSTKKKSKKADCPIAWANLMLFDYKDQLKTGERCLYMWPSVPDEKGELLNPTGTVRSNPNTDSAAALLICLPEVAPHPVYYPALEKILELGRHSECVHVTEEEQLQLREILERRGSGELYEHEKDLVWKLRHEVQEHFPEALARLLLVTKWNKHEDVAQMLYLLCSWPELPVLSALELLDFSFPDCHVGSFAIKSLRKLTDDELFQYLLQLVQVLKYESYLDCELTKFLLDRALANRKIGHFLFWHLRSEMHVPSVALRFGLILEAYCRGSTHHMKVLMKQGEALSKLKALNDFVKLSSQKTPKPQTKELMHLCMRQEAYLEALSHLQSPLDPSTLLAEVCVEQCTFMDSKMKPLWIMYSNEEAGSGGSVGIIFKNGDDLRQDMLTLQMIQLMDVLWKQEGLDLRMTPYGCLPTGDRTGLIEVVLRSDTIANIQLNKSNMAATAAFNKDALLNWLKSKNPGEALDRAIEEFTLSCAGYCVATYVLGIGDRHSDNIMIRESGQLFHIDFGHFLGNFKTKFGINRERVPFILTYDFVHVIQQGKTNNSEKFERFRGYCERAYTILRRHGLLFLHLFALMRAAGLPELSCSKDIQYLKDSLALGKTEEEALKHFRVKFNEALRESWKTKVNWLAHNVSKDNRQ
T2 sequence (P27986 whole entry partner): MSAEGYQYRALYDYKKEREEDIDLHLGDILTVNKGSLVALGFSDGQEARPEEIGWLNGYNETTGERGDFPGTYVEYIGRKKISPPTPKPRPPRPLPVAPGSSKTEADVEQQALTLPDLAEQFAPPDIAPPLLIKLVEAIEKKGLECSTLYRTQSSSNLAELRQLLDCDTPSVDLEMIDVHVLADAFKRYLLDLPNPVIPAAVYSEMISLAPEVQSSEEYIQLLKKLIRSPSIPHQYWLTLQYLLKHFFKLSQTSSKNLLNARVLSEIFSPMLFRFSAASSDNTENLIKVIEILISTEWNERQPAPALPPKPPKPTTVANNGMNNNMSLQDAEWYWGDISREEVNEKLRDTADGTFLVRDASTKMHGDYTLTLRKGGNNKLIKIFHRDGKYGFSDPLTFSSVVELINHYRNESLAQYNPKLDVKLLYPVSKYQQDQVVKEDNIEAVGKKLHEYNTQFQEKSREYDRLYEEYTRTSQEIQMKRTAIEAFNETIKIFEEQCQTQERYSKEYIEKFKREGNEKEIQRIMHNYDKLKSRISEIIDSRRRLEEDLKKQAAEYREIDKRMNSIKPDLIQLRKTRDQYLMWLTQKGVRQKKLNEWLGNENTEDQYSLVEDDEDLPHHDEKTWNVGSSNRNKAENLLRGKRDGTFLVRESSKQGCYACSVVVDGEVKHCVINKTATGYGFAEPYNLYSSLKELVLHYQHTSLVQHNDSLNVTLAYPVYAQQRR
Described as above. Particulars: Table 1; ATP 10 μM; read-out: PI3K-δ/nM (IC50 of inhibitory activity against PI3K kinase). Format: biochemical.

In data set [3] the target is T3, PI3K-α kinase (p110α/p85α) (Homo sapiens, UniProt P42336).
T3 construct: purchased Invitrogen PV4788
T3 sequence (P42336 whole entry): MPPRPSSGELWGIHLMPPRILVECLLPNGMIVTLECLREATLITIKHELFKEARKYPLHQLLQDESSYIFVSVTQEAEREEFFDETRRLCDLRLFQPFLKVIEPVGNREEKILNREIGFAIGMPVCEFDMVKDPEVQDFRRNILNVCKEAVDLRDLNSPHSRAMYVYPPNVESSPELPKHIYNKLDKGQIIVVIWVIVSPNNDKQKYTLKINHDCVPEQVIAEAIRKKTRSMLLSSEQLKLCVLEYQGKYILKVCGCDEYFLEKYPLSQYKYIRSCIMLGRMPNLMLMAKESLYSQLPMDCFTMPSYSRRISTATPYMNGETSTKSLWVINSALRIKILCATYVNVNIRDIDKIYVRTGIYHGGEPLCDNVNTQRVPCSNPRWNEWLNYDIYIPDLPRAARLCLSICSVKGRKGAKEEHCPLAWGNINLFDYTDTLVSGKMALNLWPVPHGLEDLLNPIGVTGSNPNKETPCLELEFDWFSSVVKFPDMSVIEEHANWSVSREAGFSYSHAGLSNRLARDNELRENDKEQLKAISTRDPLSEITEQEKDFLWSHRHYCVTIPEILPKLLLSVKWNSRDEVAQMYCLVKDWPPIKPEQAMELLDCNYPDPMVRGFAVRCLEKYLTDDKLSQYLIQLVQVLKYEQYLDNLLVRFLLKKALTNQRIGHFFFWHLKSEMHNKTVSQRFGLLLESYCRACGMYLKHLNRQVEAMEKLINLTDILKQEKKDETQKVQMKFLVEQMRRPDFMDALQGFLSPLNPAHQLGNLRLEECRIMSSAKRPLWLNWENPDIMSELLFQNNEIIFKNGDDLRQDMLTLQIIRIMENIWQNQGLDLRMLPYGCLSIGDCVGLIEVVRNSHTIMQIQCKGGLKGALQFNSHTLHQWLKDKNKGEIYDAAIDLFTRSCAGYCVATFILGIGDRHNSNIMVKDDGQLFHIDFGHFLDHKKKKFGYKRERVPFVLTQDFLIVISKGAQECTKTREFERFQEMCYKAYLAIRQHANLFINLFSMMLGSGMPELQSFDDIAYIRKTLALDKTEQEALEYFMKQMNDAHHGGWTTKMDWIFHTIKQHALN
T3 sequence (P27986 whole entry partner): as the sequence (P27986 whole entry partner) above
The data set is described as above. The class given is biochemical. Particulars: ATP 10 μM.

The target in the next data set is T4, PI3K-γ kinase (p110γ) (Homo sapiens, UniProt P48736).
T4 construct: purchased Invitrogen PV4786
T4 sequence (P48736 whole entry): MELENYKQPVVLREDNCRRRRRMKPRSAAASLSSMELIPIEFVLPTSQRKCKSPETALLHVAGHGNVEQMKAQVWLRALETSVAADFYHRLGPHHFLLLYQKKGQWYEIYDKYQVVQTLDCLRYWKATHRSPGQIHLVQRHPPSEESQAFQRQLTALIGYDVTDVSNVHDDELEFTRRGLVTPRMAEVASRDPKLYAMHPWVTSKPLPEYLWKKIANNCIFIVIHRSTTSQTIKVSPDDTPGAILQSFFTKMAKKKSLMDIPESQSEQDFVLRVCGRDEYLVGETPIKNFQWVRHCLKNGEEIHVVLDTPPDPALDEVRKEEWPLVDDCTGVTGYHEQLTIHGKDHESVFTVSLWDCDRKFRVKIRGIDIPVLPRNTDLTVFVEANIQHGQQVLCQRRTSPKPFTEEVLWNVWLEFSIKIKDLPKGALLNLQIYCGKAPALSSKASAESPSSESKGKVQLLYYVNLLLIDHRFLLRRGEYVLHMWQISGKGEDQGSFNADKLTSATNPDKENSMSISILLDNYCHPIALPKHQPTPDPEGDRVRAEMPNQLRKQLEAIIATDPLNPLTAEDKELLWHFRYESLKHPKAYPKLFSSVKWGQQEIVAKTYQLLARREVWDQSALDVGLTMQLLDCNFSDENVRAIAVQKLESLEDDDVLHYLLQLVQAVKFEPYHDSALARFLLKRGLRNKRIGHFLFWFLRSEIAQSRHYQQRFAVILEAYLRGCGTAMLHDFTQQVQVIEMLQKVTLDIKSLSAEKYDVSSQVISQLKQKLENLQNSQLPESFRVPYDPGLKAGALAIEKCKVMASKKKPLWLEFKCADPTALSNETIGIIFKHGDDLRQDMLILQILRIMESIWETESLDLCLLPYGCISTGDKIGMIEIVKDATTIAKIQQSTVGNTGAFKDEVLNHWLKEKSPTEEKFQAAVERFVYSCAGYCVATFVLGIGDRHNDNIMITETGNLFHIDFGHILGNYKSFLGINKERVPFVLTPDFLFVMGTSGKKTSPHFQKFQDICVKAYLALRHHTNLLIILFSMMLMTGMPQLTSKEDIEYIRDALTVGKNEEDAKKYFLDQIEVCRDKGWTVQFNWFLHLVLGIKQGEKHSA
Described as above. The class given is biochemical. Particulars: Table 1; ATP 10 μM; read-out: PI3K-γ/nM (IC50 of inhibitory activity against PI3K kinase). The method, boiled down:
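Each 25 μL reaction held PI3K enzyme (p110α/p85α 3 ng, p110β/p85α 60 ng, p110δ/p85α 90 ng, or p110γ 100 ng), 10 μM ATP, 30 μM PIP2:PS and 2% DMSO, incubated 1 h at 25 °C. Compounds were tested in duplicate across a 3-fold series, 0.00046–1 μM as prepared. ADP was detected by Transcreener fluorescence polarization, quantified against an ADP/ATP standard curve, and IC50 fitted.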

The test system of the next data set is NIH3T3 cells. Kind of data set: Cytotoxicity by MTT assay, NIH3T3. Conditions: cytotoxicity class, read-out: NIH3T3 cell (IC50/nM). Format: cell-based. As for the experimental part:
The MTT assay procedure and steps were carried out as well known to those skilled in the art, and all the reagents used in the methods were commercially available.
The cells in logarithmic growth phase were digested with 0.25% EDTA trypsin (Gibco, 25200-056) and resuspended in fresh medium. 90 μL of the cell suspension was inoculated into a 96-well cell culture plate (BD Faclon 353072) with a suitable cell density and cultured at 37° C. under 5% CO2. After the cells adhered, 10 μL of the test compound at different concentrations (0.0046-10 μM, 8 concentration points) was added and incubated for another 72 h. 10 μL of MTT (5 mg/mL PBS solution) (Sigma, M5655) was added to react for 4 h. The absorbance at 492 nm was measured by using Thermo Scientific Multiskan MK3 microplate reader and IC50 was calculated using XLFIT 5.0 software (UK IDBS).

Data set [4] in a line: Metabolism stability assay in liver microsomes. The class given is in vitro ADME, mouse. Particulars: liver microsomal metabolism in mice. As for the experimental part:
Buffer A: 1 L solution of 100 mM potassium dihydrogen phosphate containing 1 mM EDTA (Sigma, V900157-100G) was prepared. Buffer B: 1 L solution of 100 mM dipotassium hydrogen phosphate containing 1 mM EDTA was prepared. Buffer C: 700 mL of buffer B was taken out and titrated with buffer A to pH 7.4.
2.1 10 μl of 10 mM compound to be tested and 10 μl of 10 mM ketanserin were taken out and 190 μl of pure acetonitrile was added to each of them to prepare 500 μM compound to be tested and ketanserin, respectively.
2.2 20 μl (20 mg/mL) of liver microsomes (XENOTECH, H0610) stock solution was added to 513.4 μl of buffer C on wet ice. 0.75 mg/mL liver microsomal solution was obtained.
2.3 1.5 μl of each of the above-mentioned compound to be tested and ketanserin solution was added to 498.5 μl of liver microsomal solution (0.7 5 mg/mL) respectively on wet ice. 1.5 μM mixed solution of compound to be tested and 1.5 μM mixed solution of ketanserin were obtained.
2.4 At the time points 0, 5, 15, 30, 45, and 60 min, 30 μl of the mixed solution of compound to be tested and 30 μl of the mixed solution of ketanserin were dispensed into the reaction plate on wet ice, respectively.
2.5 5 mg reduced coenzyme II (Roche, 10621706001) was weighed and dissolved in 1 mL of buffer C. 6 mM reduced coenzyme II solution was obtained. The reduced coenzyme II solution was dispensed into the reaction plate.
2.6 Imipramine was dissolved to give a 10 mM solution. 10 μl imipramine solution was added to 100 mL of blank acetonitrile to generate the internal reference.
2.7 At 0 min, 135 μL of iced acetonitrile (Merck, UN 1648) containing the internal reference was added to each well and then 15 μL of buffer C was added.
2.8 The reaction plate was placed into a 37° C. water bath incubator for 5 min. In the reaction plate, 15 μL of reduced coenzyme II solution was added to each well to initiate the reaction, and the time keeping was started. At the time points of 5, 15, 30, 45, and 60 min, 135 μL of iced acetonitrile containing the internal reference was added to each well to terminate the reaction.
2.9 The reaction plate was sealed with an aluminum film, placed on a vibration mixer and shaken at 500 rpm for 5 min. The plate was then centrifuged in a centrifuge at 3750 rp for 15 min.
2.10 The sample was diluted with pure water in accordance with the ratio of 1:1 and detected by LC/MS.
Half-life: 0.693/K (the slope by plotting based on the incubation time and logarithm of the concentration value)
Clearance ratio: (0.693/half-life)*(1/protein concentration (0.5 mg/mL))*(proportional factor)
Wherein, the K value and the proportional factor were calculated by those skilled in the art according to the methods described in the prior art and contained in the instructions of the liver microsome product.

Another data set deals with T47D cells. Put plainly: Cell inhibitory activity detected by MTT assay, T47D. The class given is cell-based. Conditions: 72 h, read-out: T47D cell (IC50/nM), cell growth inhibition. For orientation: Tetrazolium assays rely on reduction of a dye to a coloured formazan, in cell work by metabolically active cells.
Data set [5] relates to Akt phosphorylation (Ser473-p-Akt) in PC-3 cells. Kind of data set: Inhibition of p-Akt phosphorylation level in PC-3 cells (cell level fluorescence imaging). The class given is cell-based. Particulars: Akt phosphorylation in PC-3 cells, 2 hours incubation; read-out: PC-3 cell (IC50/nM). As for the experimental part:
This experiment was performed by cell level fluorescence image processing method.
Triton X-100: 10% aqueous Triton X-100 solution (Sigma T8787-100 mL) was prepared, stored at 4° C. and diluted by 1:100 to give 0.1% Triton X-100 aqueous solution for use in the experiment.
Prodium Iodide (PI): 1 mg/mL (1.5 mM) PI (Sigma P4170) storage solution was prepared with PBS and stored at −25° C. in the dark. For use, the PI storage solution was diluted with PBS by 1:1000 to give a 1.5 μM solution and used in dark.
PC-3 cells in logarithmic growth phase were digested with 0.25% EDTA trypsin. 3000 cells/90 μL were seeded in a 96-well plate (BD 356692) and cultured at 37° C. and 5% CO2. After the cells adhered, 10 μL of the compound to be tested which was gradiently diluted 3 times (0.0046 to 10 μM, 8 concentration points, in duplicate) was added and incubated for 2 hours, followed by addition of 100 μL of 4% paraformaldehyde (DINGGUO AR-0211) and incubated at room temperature for 45 minutes. Then 100 μL of 0.1% Triton X-100 solution was added and incubated for another 30 minutes.
Triton X-100 solution was removed and the cells were rinsed with 200 μl of PBS twice (300 rpm vibration for 1 minute). The blocking solution (1% BSA solution in PBS) (Genview FA016-100G) was added and incubated at room temperature for 2 hours. The plate was rinsed with PBS once (300 rpm, 1 min) and 30 μL of Ser473-p-Akt antibody (cell signaling 4060L) diluted with 0.1% BSA was added and incubated overnight at 4° C. Ser473-p-Akt antibody was removed and the plate was rinsed with PBS twice (300 rpm, 1 minute). 35 μL of Alexa Flour 488 donkey anti-rabbit IgG (Invitrogen A21206) was added and incubated at room temperature for 1.5 hours. The plate was rinsed with PBS twice (300 rpm, 1 minute) and 35 μL of 1.5 μM PI was added and incubated at room temperature for 0.5 h. The fluorescence intensity was measured with Acumen eX3 (TTP LabTech).
10 μM BEZ235 (Selleck S1009) treatment group was negative control and DMSO treatment group was positive control. Inhibition ratio %=[1−(the mean value of the fluorescence intensity of the compound to be tested−the mean value of the fluorescence intensity of the negative control group)/(the mean value of the fluorescence intensity of the positive control group−the mean value of the fluorescence intensity of the negative control group)]×100%

Where two headings read alike, the source gives them in different places.

T1 sequence (P42338 whole entry): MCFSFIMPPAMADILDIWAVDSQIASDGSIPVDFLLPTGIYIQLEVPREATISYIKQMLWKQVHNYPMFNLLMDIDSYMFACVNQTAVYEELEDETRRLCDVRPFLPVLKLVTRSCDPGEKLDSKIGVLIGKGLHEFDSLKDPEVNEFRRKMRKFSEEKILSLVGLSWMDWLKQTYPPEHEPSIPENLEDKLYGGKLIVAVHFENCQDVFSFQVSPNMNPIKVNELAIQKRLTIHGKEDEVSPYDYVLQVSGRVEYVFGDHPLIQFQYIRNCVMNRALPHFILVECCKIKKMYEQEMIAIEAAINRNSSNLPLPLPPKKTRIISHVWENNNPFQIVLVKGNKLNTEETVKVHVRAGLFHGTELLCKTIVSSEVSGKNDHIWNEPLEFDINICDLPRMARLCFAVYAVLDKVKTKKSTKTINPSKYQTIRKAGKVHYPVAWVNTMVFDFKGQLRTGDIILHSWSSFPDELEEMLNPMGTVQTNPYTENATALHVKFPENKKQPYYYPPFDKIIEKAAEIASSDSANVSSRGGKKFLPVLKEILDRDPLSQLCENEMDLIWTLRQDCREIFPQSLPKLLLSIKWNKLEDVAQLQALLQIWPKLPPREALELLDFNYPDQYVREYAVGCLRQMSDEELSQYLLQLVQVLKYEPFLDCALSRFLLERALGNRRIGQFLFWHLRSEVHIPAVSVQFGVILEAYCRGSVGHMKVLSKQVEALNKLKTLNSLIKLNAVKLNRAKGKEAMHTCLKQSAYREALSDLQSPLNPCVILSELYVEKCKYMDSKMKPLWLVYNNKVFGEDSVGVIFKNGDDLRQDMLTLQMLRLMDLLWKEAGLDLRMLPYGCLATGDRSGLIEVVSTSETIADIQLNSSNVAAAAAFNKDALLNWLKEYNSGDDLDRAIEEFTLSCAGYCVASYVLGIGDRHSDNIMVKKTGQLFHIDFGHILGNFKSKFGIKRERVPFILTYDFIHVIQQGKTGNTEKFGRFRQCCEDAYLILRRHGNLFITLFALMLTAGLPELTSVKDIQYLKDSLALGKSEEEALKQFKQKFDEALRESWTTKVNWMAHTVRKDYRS
T1 sequence (P27986 whole entry partner): as the sequence (P27986 whole entry partner) above

Turning to `Nc1cc(C(F)(F)F)c(-c2cc(C3(S(=O)(=O)c4ccc(F)cc4)CC3)nc(N3CCOCC3)n2)cn1` [Compound S-59], the IC50 in data set [1] was 721 nM; in data set [2] it was 235 nM; in data set [3] (Table 1, read-out: PI3K-α/nM (IC50 of inhibitory activity against PI3K kinase)), 37 nM; on PI3K-γ kinase (p110γ), 813 nM; in the data set with NIH3T3 cells (Mus musculus, NIH3T3, 72 h), 1000 to 3000 nM. The “Clearance ratio (mL/min/kg) mouse” value in data set [4] came out at 7163.43 mL/min/kg.
With `CC(C)(O)c1cc(-c2cnc(N)cc2C(F)(F)F)nc(N2CCOCC2)n1` [Compound S-50, 2-(6-(6-amino-4-(trifluoromethyl)pyridin-3-yl)-2-morpholin-4-yl)propan-2-ol], the IC50 was 39 nM in data set [3] (Table 2, read-out: PI3K-α/nM (IC50 of inhibitory activity against PI3K-α kinase)); 449 nM in the data set on T47D cells; 1000 to 3000 nM with NIH3T3 cells (72 h); 39 nM in data set [5].
Turning to `CC(C)(c1cc(-c2cnc(N)cc2C(F)(F)F)nc(N2CCOCC2)n1)S(=O)(=O)c1ccccc1` [Compound S-21], the IC50 in data set [1] is 832 nM; in data set [2], 214 nM; on PI3K-γ kinase (p110γ) it was 843 nM; with NIH3T3 cells (Mus musculus, NIH3T3, 72 h), 1000 to 3000 nM. Also, the “Clearance ratio (mL/min/kg) mouse” value in data set [4] came out at 6337.31 mL/min/kg.
